Measured values as given in paper PMC11249646, “Small-Molecule Disruptors of the Interaction between Calcium- and Integrin-Binding Protein 1 and Integrin αIIbβ3 as Novel Antiplatelet Agents” (ACS Pharmacology & Translational Science, 2024).
Read-outs that look alike come from different tables or passages of the source. Where a SMILES comes first, the peptide text is derived from it. The star is where a group is joined. Cbz = O=C(OCc1ccccc1)*; CH2Cl = ClC*

Target: T1, CIB1 and αIIb interaction (CIB1-GST : F-αIIb peptide) (Homo sapiens, UniProt Q99828)
T1 construct: made in house; host or cells: BL-21 plus RIL cells (E. coli)
T1 sequence (Q99828 1-191): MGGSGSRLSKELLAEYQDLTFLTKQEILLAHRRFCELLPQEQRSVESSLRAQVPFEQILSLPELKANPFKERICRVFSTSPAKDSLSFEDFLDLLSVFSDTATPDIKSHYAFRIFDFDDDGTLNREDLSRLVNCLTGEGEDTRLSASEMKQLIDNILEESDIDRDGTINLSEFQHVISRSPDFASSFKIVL
Assay: FP assay, 1536-well qHTS format (primary and confirmatory screen)
Assay type: binding
Settings: for Curve Class: negative sign = inhibitory curve

[1] = qHTS primary screen of LOPAC/NPACT libraries, negative = inhibition
[2] = qHTS primary screen of LOPAC/NPACT libraries
[3] = qHTS primary screen of LOPAC/NPACT libraries, read-out: IC50
[4] = qHTS primary screen hits, Table S2, negative = inhibition
[5] = qHTS primary screen hits, Table S2, several classes where COUNT > 1
[6] = qHTS primary screen hits, Table S2, read-out: IC50
[7] = qHTS primary screen hits, Table S2
[8] = qHTS FP screen hits, Table S2, negative = inhibition
[9] = qHTS FP screen hits, Table S2, read-out: IC50

Row | Compound | Efficacy (%) [4] | Curve Class [5] | IC50 [6] | further results
1 | CN(C)CC1CCn2c(c(C3=C(c4cn(C)c5ccccc45)C(=O)NC3=O)c3ccccc32)C1.Cl (stereo not shown) [NCGC00163696-04] | – | – | – | Efficacy (%) [1]: -28%; Curve Class [2]: -2.4; IC50 [3]: 56.2 µM
2 | O=C(O)C(F)(F)F.O=C1CC(c2ccc(F)cc2F)c2sc(N3CCOCC3)nc2N1 (stereo not shown) [NCGC00488253-02] | -42% | -2.4 | 50.1 µM | –
3 | CCn1cc(C(=O)O)c(=O)c2ccc(C)nc21 [NCGC00162271-02] | – | – | – | Efficacy (%) [1]: -10%; Curve Class [2]: -1.4; IC50 [3]: 8.9 µM
4 | Cl.O=C(O)c1csc(-n2nc(-c3ccc(F)c(F)c3)c(Cc3ccccc3)c2O)n1 [NCGC00356264-02] | -25% | -2.4 | 79.4 µM | –
5 | Cc1ccc(NS(=O)(=O)c2cc(Br)cc3c2NC(=O)CC3)cc1Cl.O=C(O)C(F)(F)F [NCGC00242331-01] | -33% | – | 50.1 µM | Curve Class [7]: -2.2
6 | Cc1cc(C)nc(NC(=S)N2CCN(c3cc4ccccc4cn3)CC2)c1.O=C(O)C(F)(F)F [NCGC00244142-01] | -31% | -2.4 | 79.4 µM | –
7 | O=Cc1ccc(O)c(O)c1O [NCGC00262933-01] | -62% | -2.4 | 56.2 µM | –
8 | Cl.O=c1c2ccccc2nc2sc(Nc3cccc(N4CCNCC4)c3)nn12 [NCGC00187809-01] | -32% | -2.4 | 44.7 µM | –
9 | CCC(C)(C)C(=O)O[C@H]1C[C@@H](C)C=C2C=C[C@H](C)[C@H](CC[C@@H]3C[C@@H](O)CC(=O)O3)[C@H]21 [NCGC00017324-07] | -17% | -2.4 | – | –
10 | Cc1ccc(N)cc1O [NCGC00090702-02] | -38% | – | 126 µM | Curve Class [7]: -2.2
11 | COc1cc(N2CCC(N3CCN(C)CC3)CC2)ccc1Nc1ncc(Cl)c(-c2c[nH]c3ccccc23)n1 [NCGC00390583-01] | – | – | – | Efficacy (%) [1]: -31%; Curve Class [2]: -2.4; IC50 [3]: 50.1 µM
12 | O=C(O)C(F)(F)F.OCc1ccc(-c2ccc3ncnc(NCCc4c[nH]cn4)c3c2)o1 [NCGC00188669-01] | -40% | -2.4 | 44.7 µM | –
13 | O=C1NC(=O)/C(=C/c2ccc3c(c2)OC(F)(F)O3)S1 [NCGC00261190-01] | -33% | – | 17.8 µM | Curve Class [7]: -1.2
14 | Cc1ccc(C)n1-c1cnccc1C(=O)O.O=C(O)C(F)(F)F [NCGC00273496-01] | -39% | – | 44.7 µM | Curve Class [7]: -2.4
15 | Cc1nc(CNc2ncnc3ccc(-c4ccc(CO)o4)cc23)cs1.O=C(O)C(F)(F)F [NCGC00188652-01] | -35% | -2.4 | 56.2 µM | –
16 | Cn1c(=O)c2[nH]c(-c3ccc(S(=O)(=O)O)cc3)nc2n(C)c1=O [NCGC00015000-05] | – | – | – | Efficacy (%) [1]: -28%; Curve Class [2]: -2.2; IC50 [3]: 50.1 µM
17 | COc1ccc(NC(=O)c2cccs2)cn1.O=C(O)C(F)(F)F [NCGC00229661-01] | -41% | -2.2 | 50.1 µM | –
18 | O=C(O)C(F)(F)F.O=S(=O)(Nc1ccc(C2CCNCC2)cc1)c1ccc(NCc2ccc(Br)cc2O)cc1 [NCGC00343916-01] | -31% | -2.4 | 56.2 µM | –
19 | C=CCNc1oc(-c2ccc(F)cc2)nc1C#N.O=C(O)C(F)(F)F [NCGC00183411-01] | -27% | -2.4 | 50.1 µM | –
20 | Oc1cccc2cccnc12 [NCGC00090708-05] | – | – | – | Efficacy (%): -29%; IC50 (IC50 [μM]): 117 µM
21 | O=C(O)/C=C/c1ccc(-c2ccc(O)c(C34CC5CC(CC(C5)C3)C4)c2)cc1 [NCGC00485908-01] | – | – | – | Efficacy (%) [1]: -26%; Curve Class [2]: -2.4; IC50 [3]: 44.7 µM
22 | Cc1cc2nc3c(=O)[nH]c(=O)nc-3n(C[C@H](O)[C@H](O)[C@H](O)CO)c2cc1C [NCGC00091288-05] | -134% | – | 4 µM | –
23 | Nc1nc2c(s1)C(c1ccccc1Cl)CC(O)=N2 (stereo not shown) [NCGC00284018-04] | -37% | – | 53.2 µM | Curve Class [7]: -2.4
24 | Cn1ccc(=Nc2ccc(NC(=O)c3ccc(/N=c4/ccn(C)c5ccc([N+](=O)[O-])cc45)cc3)cc2)cc1.O=C(O)C(F)(F)F [NCGC00356208-01] | -35% | -2.4 | 56.2 µM | –
25 | NC(=O)c1cc[n+](CC2=C(C(=O)O)N3C(=O)[C@@H](NC(=O)[C@@H](c4ccccc4)S(=O)(=O)[O-])[C@H]3SC2)cc1 [NCGC00162106-03] | – | – | – | Efficacy (%) [1]: -20%; Curve Class [2]: -2.2; IC50 [3]: 50.1 µM

Row | Compound | Efficacy (%) [4] | Curve Class [5] | IC50 [6] | further results
26 | Cc1ccc(-n2nc(C(C)(C)C)cc2NC(=O)Nc2ccc(OCCN3CCOCC3)c3ccccc23)cc1 [NCGC00241104-02] | -32% | -2.4 | 44.7 µM | –
27 | CC(C)C[C@H](NC(=O)CNC(=O)OCc1ccccc1)C(=O)N[C@@H](Cc1ccccc1)C(=O)CCl [NCGC00485375-01] (Cbz-Gly-Leu-Phe-CH2Cl) | – | – | – | Efficacy (%) [1]: -24%; Curve Class [2]: -2.4; IC50 [3]: 22.4 µM
28 | COc1cc(O)c2c(c1)/C=C/C[C@H](O)[C@H](O)C(=O)/C=C\C[C@H](C)OC2=O [NCGC00186421-07] | – | – | – | Efficacy (%) [1]: -26%; Curve Class [2]: -2.4; IC50 [3]: 25.1 µM
29 | CC(=O)N1CCN(c2ccc(NC[C@H]3CO[C@](Cn4ccnc4)(c4ccc(Cl)cc4Cl)O3)cc2)CC1 [NCGC00250372-03] | -45% | -2.4 | 44.7 µM | –
30 | CO/N=C(/C(=O)N[C@@H]1C(=O)N2C(C(=O)[O-])=C(C[n+]3ccn4ncccc43)CS[C@H]12)c1nsc(N)n1 [NCGC00181750-01] | -60% | -2.4 | 56.2 µM | –
31 | COc1ccccc1-c1cccc(-c2c(O)c3cc(C#N)c(Cl)cc3[nH]c2=O)c1 [NCGC00263230-01] | -24% | -2.4 | 62.2 µM | –
32 | CC(=O)O.Cc1cc2c(C(C)C)c(O)c(O)c(C=O)c2c(O)c1-c1c(C)cc2c(C(C)C)c(O)c(O)c(C=O)c2c1O [NCGC00016423-14] | – | – | – | Efficacy (%) [8]: -64%; IC50 [9]: 29.4 µM
33 | CN(C)CCCNC(=O)c1ccc(-c2cc(O)c3ncccc3c2)cc1 [NCGC00183808-07] | -38% | – | 30.2 µM | –
34 | CCN1CCc2nc(N)oc2CC1.Cl [NCGC00015131-04] | – | – | – | Efficacy (%) [1]: -13%; Curve Class [2]: -2.4; IC50 [3]: 39.8 µM
35 | Nc1ccncc1N [NCGC00167560-02] | -26% | -2.4 | 79.4 µM | –
36 | O=C(Nc1ccc(Oc2ccc(Cl)cc2)c(Cl)c1)c1cc(I)cc(I)c1O [NCGC00160556-02] | -27% | – | 89.1 µM | Curve Class [7]: -2.4
37 | O=C(O)c1cc(/N=N/c2ccc(S(=O)(=O)Nc3ccccn3)cc2)ccc1O [NCGC00090903-11] | – | – | – | Efficacy (%) [8]: -43%; Curve Class (qHTS FP screen hits, Table S2, one class per curve where COUNT > 1): -2.2; IC50 [9]: 25.1 µM
38 | COc1cccc(-c2csc(NC(=O)c3ccncc3NS(=O)(=O)c3ccc(C)cc3)n2)c1.O=C(O)C(F)(F)F [NCGC00319006-01] | -58% | -2.2 | 47.4 µM | –
39 | O=c1c(-c2ccc(O)cc2)coc2cc(O)ccc12 [NCGC00261097-01] | – | – | – | Efficacy (%) [1]: -11%; Curve Class [2]: -2.4; IC50 [3]: 56.2 µM
40 | CC1=C(C(=O)N(C)C)C(c2ccccc2Br)N=C(Nc2nc3ccccc3o2)N1.O=C(O)C(F)(F)F (stereo not shown) [NCGC00229733-01] | -27% | – | 56.2 µM | Curve Class [7]: -2.4
41 | Cc1ccc(CNc2ncnc3ccc(-c4ccc(CO)o4)cc23)o1.O=C(O)C(F)(F)F [NCGC00188654-01] | -45% | – | 50.1 µM | Curve Class [7]: -2.2
42 | Clc1ccccc1C(c1ccccc1)(c1ccccc1)n1ccnc1 [NCGC00015251-09] | – | – | – | Efficacy (%) [1]: -14%; Curve Class [2]: -2.4; IC50 [3]: 20 µM
43 | CC(C)N(CCC(=O)c1ccc2ccccc2c1)Cc1ccccc1.Cl [NCGC00016107-09] | – | – | – | Efficacy (%) [1]: -65%; Curve Class [2]: -1.2; IC50 [3]: 28.2 µM
44 | O=C1c2ccccc2-c2n[nH]c3cccc1c23 [NCGC00261158-01] | -52% | – | 14.1 µM | Curve Class [7]: -1.2
45 | O=C(/C=C/c1ccccc1)OC[C@H]1O[C@@H](OC(=O)c2cc(O)c(O)c(O)c2)[C@H](O)[C@@H](O)[C@@H]1O [NCGC00380690-01] | – | – | – | Efficacy (%) [1]: -20%; Curve Class [2]: -1.4; IC50 [3]: 8.9 µM
46 | CC1OC2OC(=O)C3(C)CC4C5(CO5)C5=CC(=O)OC(C)(C)C5=CC(=O)C4(C)C(C1=O)C23 (stereo not shown) [NCGC00380663-01] | -57% | – | 31.6 µM | Curve Class (qHTS primary screen hits, Table S2, NPACT library): -2.2
47 | O=C1NC(c2cccc([N+](=O)[O-])c2)=CCN1c1ccccc1O [NCGC00015571-05] | -18% | -2.2 | 50.1 µM | –
48 | O=C(O)C(F)(F)F.O=C1CCCC2=C1C1(CCCCC1)N=C(Nc1nc3ccccc3o1)N2 [NCGC00186052-01] | -23% | -2.4 | 56.2 µM | –
49 | CNC[C@H](O)c1ccc(O)c(O)c1 [NCGC00015417-04] | -32% | – | 70.8 µM | Curve Class [7]: -2.4
